Reference: patent US5474989A, “Drug composition” (priority 1988, dated 1995)

Assays:
[1] = Solubility of drugs in aqueous solutions of low molecular weight chitosan C-5 (Example 3); conditions: aqueous solution of C-5, varying concentration, 25° C., 10 days
Procedure: Each 5 mg of vitamin E and vitamin K was accurately weighed (this amount is chosen so as to exceed above the solubility limits of these drugs) and placed in a test tube. […] Each of the solutions which reached dissolution equilibrium was sampled with a pippette fitted with a cotton plug. The sample was filtered through a 0.45 μm membrane filter and the concentration of vitamin E or vitamin K was determined by means of UV-determination after extraction with chloroform.

[2] = Dissolution rate of drug into water, solid dispersion with low molecular weight chitosan C-5 versus drug alone (Example 4); assay type: physicochemical; conditions: drug alone without additive; 10 to 30 mg in 60 ml, 57 rpm, water 37° C.
Procedure: Each 3 parts by weight of the chitosan products C-0 to C-5 was added to 1 part by weight of flurbiprofen (denoted sometimes hereinafter as FP) and the mixture kneaded with the addition of water in an amount of 2-fold of that of the chitosan product for 1 hour. The kneaded mixture was dried under a reduced pressure at room temperature for 48 hours. A fraction of the particles that passed through 100-mesh standard sieve was employed as the solid dispersion. For each of these solid dispersions, the dissolution rate of FP into water at 37° C. was observed by the procedure given below:
500 ml of water were charged in a dissolution rate measuring device (made by Toyama Sangyo Co., Ltd.) maintained at 37° C. and thereto was further added each of the above solid dispersions in an amount corresponding to 40 mg as FP and the mixture was agitated at 91 rpm. The agitated mixture was sampled each in an amount of 3 ml at a regular time interval with a pipette fitted with a cotton plug. Each sample was filtered through a 0.45 μm membrane filter and the FP concentration of the filtrate was determined after extraction with chloroform.
The rate of dissolution was determined for drug compositions having the low molecular weight chitosan C-5 obtained in Reference Example 1, by observing the concentration of the drug in the same manner as in Example 1 at a regular time interval except that the drug was charged in an amount within the range of from 10 to 30 mg in 60 ml of solution and the agitation was effected at 57 rpm. The ratio of the dissolved amount of drug to the total charged amount of the drug was calculated. Results are summarized in FIGS. 5(A)- 5(G) in a corresponding graph. The experimental results for flurbiprofen are given here again.
The average dissolution time calculated from the rate of dissolution for each drug is recited in Table 3. The calculation of the average dissolution time was made basing on the method given in "Chem. Pharm. Bull.", 30, 1088 (1982).

[3] = Wetting contact angle of water drops on tablet surface (Example 7); assay type: physicochemical; conditions: tablet 2 cm diameter, 50 μl water drop
Procedure: Examination was effected for the samples of the solid dispersions as obtained in Example 5 and for each drug alone without any additive. The wetting was evaluated by determining the wetting contact angle of water drops on the surface of a tablet having a diameter of 2 cm obtained using an IR tabletting machine with a drop of water of 50 μl.

[4] = chitosan in a form of a solution of acetic acid salt, versus polyvinylpyrrolidone; cited from earlier work

| SMILES | dissolution characteristic curve type [1] | Average Dissolution Time, Drug alone [2] [min] | solubility of drug with increasing concentration of low molecular weight chitosan [1] | Wetting Contact Angle, Drug alone [3] [°] | effect of chitosan on the dissolution rate of kitasamycin [4] |
| --- | --- | --- | --- | --- | --- |
| C[C@H]1C[C@H]2[C@@H]3CCC4=CC(=O)C=C[C@]4(C)[C@@]3(F)[C@@H](O)C[C@]2(C)[C@@]1(O)C(=O)CO [Betamethasone, betamethasone] | dissolution characteristic curve of Bs-type | 45.9 | – | – | – |
| C[C@H]1O[C@@H](O[C@H]2[C@@H](O)C[C@H](O[C@H]3[C@@H](O)C[C@H](O[C@H]4CC[C@@]5(C)[C@H](CC[C@@H]6[C@@H]5C[C@@H](O)[C@]5(C)[C@@H](C7=CC(=O)OC7)CC[C@]65O)C4)O[C@@H]3C)O[C@@H]2C)C[C@H](O)[C@@H]1O [Digoxin, digoxin] | – | 40.9 | an increase in the solubility of the drug was recognized | – | – |
| CC(C(=O)O)c1ccc(-c2ccccc2)c(F)c1 (centres unmarked) [Flurbiprofen, flurbiprofen] | – | 46.1 | – | 55 | – |
| COc1ccc2c(c1)c(CC(=O)O)c(C)n2C(=O)c1ccc(Cl)cc1 [Indomethacin, indomethacin] | – | 24.8 | – | 50 | – |
| O=C1NC(=O)C(c2ccccc2)(c2ccccc2)N1 [Phenytoin, phenytoin] | – | 35.9 | an increase in the solubility of the drug was recognized | – | – |
| C[C@]12C=CC(=O)C=C1CC[C@@H]1[C@@H]2[C@@H](O)C[C@@]2(C)[C@H]1CC[C@]2(O)C(=O)CO [Prednisolone, prednisolone] | – | 18.7 | – | – | – |
| C[C@]12C=CC(=O)C=C1CC[C@H]1[C@@H]3C[C@@H](O)[C@](O)(C(=O)CO)[C@@]3(C)C[C@H](O)[C@@]12F [Triamcinolone, triamcinolone] | – | 24.3 | – | 50 | – |
| CO[C@@H]1[C@@H](O[C@@H]2O[C@H](C)[C@@H](O[C@H]3C[C@@](C)(O)[C@@H](OC(=O)CC(C)C)[C@H](C)O3)[C@H](N(C)C)[C@H]2O)[C@@H](CC=O)C[C@@H](C)[C@@H](O)/C=C/C=C/C[C@@H](C)OC(=O)C[C@H]1O [kitasamycin] | – | – | – | – | lower than that of polyvinylpyrrolidone |
